ChEMBL document CHEMBL1201862, “PubChem BioAssay data set” (2004)
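Grown in 96-well plates, cells were treated for 48 hours with each compound at five concentrations. Insufficient inhibition: endpoint recorded as highest concentration tested. GI50: concentration for 50% inhibition of growth.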 The source made the active and inactive calls. Rule as the data show it: active = GI50 up to about 1.1 µM and inactive = higher. Where a SMILES comes first, the peptide text is derived from it. [ ]: non-standard residue; d: D form. The star is where a group is joined. ξ: configuration not given here. X38 = O=C(OCc1ccccc1)[C@@H]1CCC[C@H]1N*; Fmoc = O=C(OCC1c2ccccc2-c2ccccc21)*; ξW = NC(Cc1c[nH]c2ccccc12)C(=O)O; ξF = NC(Cc1ccccc1)C(=O)O; Boc = CC(C)(C)OC(=O)*; ξK = NCCCCC(N)C(=O)O; ξT = CC(O)C(N)C(=O)O; tBu = CC(C)(C)*

Key:
Assay in all cases: growth of human tumour cells (NCI), 48 h
[1] = tested on: 786-0
[2] = tested on: Malme-3M
[3] = tested on: SF-295
[4] = tested on: CAKI-1
[5] = tested on: OVCAR-5
[6] = tested on: SK-OV-3
[7] = tested on: RPMI-8226
[8] = tested on: HT-29
[9] = tested on: HCT-116
[10] = tested on: HCT-15
[11] = tested on: NCI-H23
[12] = tested on: SW-620
[13] = tested on: SR
[14] = tested on: OVCAR-8
[15] = tested on: MOLT-4
[16] = tested on: RXF 393
[17] = tested on: MDA-MB-231
[18] = tested on: T47D
[19] = tested on: Hs-578T
[20] = tested on: BT-549

| Structure (SMILES) | GI50 [1] | GI50 [2] | GI50 [3] | GI50 [4] | GI50 [5] | GI50 [6] | GI50 [7] | GI50 [8] | GI50 [9] | GI50 [10] [µM] | GI50 [11] | GI50 [12] | GI50 [13] | GI50 [14] | GI50 [15] | GI50 [16] | GI50 [17] | GI50 [18] | GI50 [19] | GI50 [20] |
| --- | --- | --- | --- | --- | --- | --- | --- | --- | --- | --- | --- | --- | --- | --- | --- | --- | --- | --- | --- | --- |
| N=C1c2ccccc2C(=O)c2c(NCCNCCO)ccc(O)c21 | 4.73 µM (inactive) | 13.7 µM (inactive) | 12.5 µM (inactive) | 10.3 µM (inactive) | 16 µM (inactive) | 6.55 µM (inactive) | 7.19 µM (inactive) | 9.02 µM (inactive) | 3.27 µM (inactive) | 25.5 | 9.16 µM (inactive) | 3.1 µM (inactive) | 0.579 µM (active) | 4.72 µM (inactive) | 1.88 µM (inactive) | 4.66 µM (inactive) | – | – | – | – |
| CC(OC(C)(C)C)C(NC(=O)C(CCCCNC(=O)OC(C)(C)C)NC(=O)C(Cc1c[nH]c2ccccc12)NC(=O)C(Cc1ccccc1)NC(=O)OCC1c2ccccc2-c2ccccc21)C(=O)NC(Cc1ccccc1)C(=O)N[C@@H]1CCC[C@H]1C(=O)OCc1ccccc1 (stereo not given in full) (Fmoc-[ξF][ξW][ξK](Boc)[ξT](tBu)[ξF]-X38) | > 100 µM (inactive) | > 100 µM (inactive) | > 100 µM (inactive) | 62.2 µM (inactive) | > 100 µM (inactive) | > 100 µM (inactive) | > 100 µM (inactive) | > 100 µM (inactive) | > 100 µM (inactive) | > 100 | > 100 µM (inactive) | > 100 µM (inactive) | > 100 µM (inactive) | > 100 µM (inactive) | > 100 µM (inactive) | > 100 µM (inactive) | 65.3 µM (inactive) | > 100 µM (inactive) | 31 µM (inactive) | – |
| COc1cccc(/C(Cl)=C(\C=O)c2cccc(OC)c2)c1 | 14.8 µM (inactive) | 0.946 µM (active) | 12.2 µM (inactive) | 39 µM (inactive) | 19.6 µM (inactive) | 20 µM (inactive) | 4.62 µM (inactive) | 12.3 µM (inactive) | 3.28 µM (inactive) | 5.6 | 5.77 µM (inactive) | 6.81 µM (inactive) | 5.35 µM (inactive) | 10.7 µM (inactive) | 7.74 µM (inactive) | 5.12 µM (inactive) | – | – | – | – |
| Cc1ccc(S(=O)(=O)Oc2nc3nc4ccccc4nc3nc2OS(=O)(=O)c2ccc(C)cc2)cc1 | > 100 µM (inactive) | > 100 µM (inactive) | > 100 µM (inactive) | > 100 µM (inactive) | > 100 µM (inactive) | > 100 µM (inactive) | > 100 µM (inactive) | > 100 µM (inactive) | > 100 µM (inactive) | > 100 | > 100 µM (inactive) | – | – | > 100 µM (inactive) | – | > 100 µM (inactive) | > 100 µM (inactive) | – | > 100 µM (inactive) | > 100 µM (inactive) |
| COc1ccc(N2C(=O)CSC2c2cc(OC)c(OC)c(OC)c2)cc1 (stereo not given) | 21.4 µM (inactive) | 23.7 µM (inactive) | 22.6 µM (inactive) | 25 µM (inactive) | 22.3 µM (inactive) | 24.2 µM (inactive) | 27.5 µM (inactive) | 21.6 µM (inactive) | 16.8 µM (inactive) | 16 | 25.3 µM (inactive) | 34 µM (inactive) | 5.41 µM (inactive) | 29.9 µM (inactive) | 21.4 µM (inactive) | – | 26.5 µM (inactive) | – | 48.6 µM (inactive) | 23.2 µM (inactive) |
| C[n+]1c(-c2ccc(/C=N/NC(=N)N/N=C/c3ccc(-c4cn5cc(Cl)ccc5[n+]4C)cc3)cc2)cn2cc(Cl)ccc21 | 73.3 µM (inactive) | – | > 100 µM (inactive) | – | > 100 µM (inactive) | > 100 µM (inactive) | > 100 µM (inactive) | > 100 µM (inactive) | > 100 µM (inactive) | > 100 | – | > 100 µM (inactive) | > 100 µM (inactive) | > 100 µM (inactive) | > 100 µM (inactive) | – | > 100 µM (inactive) | > 100 µM (inactive) | > 100 µM (inactive) | – |
| COCCOc1cc(C)cc(/C=C(C)/C=C/C2=C(C)CCCC2(C)C)n1 | > 100 µM (inactive) | 38.3 µM (inactive) | > 100 µM (inactive) | > 100 µM (inactive) | > 100 µM (inactive) | > 100 µM (inactive) | 14.8 µM (inactive) | 28.6 µM (inactive) | 30.7 µM (inactive) | – | 58.9 µM (inactive) | 59.7 µM (inactive) | 16.5 µM (inactive) | 60.7 µM (inactive) | 13.3 µM (inactive) | 39.7 µM (inactive) | – | – | – | – |
| Cn1c2ccccc2c(=O)c2c(O)cc3c(c21)C=CC1(CCCC1)O3 | 76.4 µM (inactive) | > 100 µM (inactive) | 19 µM (inactive) | > 100 µM (inactive) | 33.7 µM (inactive) | > 100 µM (inactive) | > 100 µM (inactive) | 2.67 µM (inactive) | > 100 µM (inactive) | > 100 | 68.1 µM (inactive) | > 100 µM (inactive) | 37.3 µM (inactive) | > 100 µM (inactive) | > 100 µM (inactive) | 22.7 µM (inactive) | > 100 µM (inactive) | – | 95.7 µM (inactive) | > 100 µM (inactive) |
| NC(=S)c1cccc(C2Nc3ccccc3O2)c1 (stereo not given) | > 100 µM (inactive) | > 100 µM (inactive) | 68.9 µM (inactive) | > 100 µM (inactive) | > 100 µM (inactive) | > 100 µM (inactive) | < 0.01 µM (active) | 92.9 µM (inactive) | > 100 µM (inactive) | 21.9 | 49.9 µM (inactive) | 75.7 µM (inactive) | > 100 µM (inactive) | > 100 µM (inactive) | 41.7 µM (inactive) | > 100 µM (inactive) | 6.25 µM (inactive) | 46.7 µM (inactive) | > 100 µM (inactive) | – |
| FC(F)(F)c1nc(-c2ccccc2)oc1Sc1nnc(Sc2oc(-c3ccccc3)nc2C(F)(F)F)s1 | 28.4 µM (inactive) | 18.1 µM (inactive) | > 67.1 µM (inactive) | 30.1 µM (inactive) | > 100 µM (inactive) | > 100 µM (inactive) | 30.5 µM (inactive) | > 100 µM (inactive) | > 65.3 µM (inactive) | 25.3 | 24.2 µM (inactive) | > 60.3 µM (inactive) | 18.5 µM (inactive) | 22.7 µM (inactive) | 6.84 µM (inactive) | 21.1 µM (inactive) | – | – | – | – |
| COc1cc2c(c(OC)c1OC)C(=O)c1c(O)cc(C)c(OC)c1C2=O | 78.3 µM (inactive) | > 100 µM (inactive) | 82.6 µM (inactive) | 44.6 µM (inactive) | > 100 µM (inactive) | – | > 100 µM (inactive) | > 100 µM (inactive) | 99.1 µM (inactive) | > 100 | > 100 µM (inactive) | > 100 µM (inactive) | > 100 µM (inactive) | > 100 µM (inactive) | > 100 µM (inactive) | – | 55 µM (inactive) | – | 15.6 µM (inactive) | > 100 µM (inactive) |
| C=CCn1c(=O)c2ccccc2[n+]2c(-c3cccc([N+](=O)[O-])c3)csc12 | 48.9 µM (inactive) | > 100 µM (inactive) | 53.1 µM (inactive) | 97.3 µM (inactive) | > 100 µM (inactive) | 68.1 µM (inactive) | 30.7 µM (inactive) | 30.8 µM (inactive) | 38.9 µM (inactive) | – | 54.5 µM (inactive) | > 100 µM (inactive) | 17 µM (inactive) | 34.8 µM (inactive) | 24.7 µM (inactive) | 37.2 µM (inactive) | 87.3 µM (inactive) | 19.7 µM (inactive) | 24.4 µM (inactive) | – |
| O=C1c2ccccc2NC(=O)C2C1C(c1ccccc1)CC2(O)c1ccccc1 (stereo not given) | 69.5 µM (inactive) | > 100 µM (inactive) | 43.6 µM (inactive) | 78 µM (inactive) | > 100 µM (inactive) | > 100 µM (inactive) | – | 26 µM (inactive) | 16.9 µM (inactive) | 50.5 | 62.7 µM (inactive) | 50.8 µM (inactive) | 70.3 µM (inactive) | > 100 µM (inactive) | 15.4 µM (inactive) | 80.9 µM (inactive) | 34.4 µM (inactive) | 49.7 µM (inactive) | 34.5 µM (inactive) | – |
| COC1CC(OC(=O)c2ccccc2)C(OC(=O)c2ccccc2)C(C)O1 (stereo not given) | > 100 µM (inactive) | > 100 µM (inactive) | > 100 µM (inactive) | > 100 µM (inactive) | > 100 µM (inactive) | > 100 µM (inactive) | > 100 µM (inactive) | – | > 100 µM (inactive) | > 100 | > 100 µM (inactive) | > 100 µM (inactive) | > 100 µM (inactive) | > 100 µM (inactive) | > 100 µM (inactive) | > 100 µM (inactive) | > 100 µM (inactive) | > 100 µM (inactive) | 59.8 µM (inactive) | – |
| COC(=O)[C@@H]1CN(C(=O)CCc2ccccc2)C(=O)N1 | > 100 µM (inactive) | > 100 µM (inactive) | > 100 µM (inactive) | > 100 µM (inactive) | > 100 µM (inactive) | > 100 µM (inactive) | > 100 µM (inactive) | > 100 µM (inactive) | > 100 µM (inactive) | > 100 | > 100 µM (inactive) | > 100 µM (inactive) | > 100 µM (inactive) | > 100 µM (inactive) | > 100 µM (inactive) | > 100 µM (inactive) | > 100 µM (inactive) | > 100 µM (inactive) | > 100 µM (inactive) | – |
| COc1cc(/C=C/c2ccc(Br)cc2)cc(OC)c1OC | 19.9 µM (inactive) | 6.08 µM (inactive) | 6.73 µM (inactive) | 6.24 µM (inactive) | 16.6 µM (inactive) | 20.7 µM (inactive) | 3.99 µM (inactive) | 6.44 µM (inactive) | 4.55 µM (inactive) | 7 | 16.3 µM (inactive) | 7.62 µM (inactive) | 16.1 µM (inactive) | 28.3 µM (inactive) | 3.21 µM (inactive) | 15.7 µM (inactive) | – | – | – | – |
